Assay results reported in ChEMBL document CHEMBL5331105, “Newly Synthesized 3-Indolyl Furanoid Inhibits Matrix Metalloproteinase-9 Activity and Prevents Nonsteroidal Anti-inflammatory Drug-Induced Gastric Ulceration” (J Med Chem, 2023).
Calls of active or inactive are those of the source. The rule behind the calls is not given here.

Experiments:
Mus musculus [1] = test: Antiulcer activity in indomethacin-induced Balb/c mouse model of gastric ulcer assessed as inhibition of ulceration at 50 mg/kg, po pre-administered with compound for 30 mins followed by indomethacin administration and measured after 4 hrs relative to control; format: functional; details: time 4.5 hrs
Mus musculus [2] = test: Antiulcer activity in indomethacin-induced Balb/c mouse model of gastric ulcer assessed as mean ulcer index at 50 mg/kg, po pre-administered with compound for 30 mins followed by indomethacin administration and measured after 4 hrs (reference value: 52.5 +/- 1.4); format: functional; details: time 4.5 hrs
Mus musculus [3] = test: Antiulcer activity in indomethacin-induced Balb/c mouse model of gastric ulcer assessed as mean ulcer index at 12 mg/kg, po pre-administered with compound for 30 mins followed by indomethacin administration and measured after 4 hrs (reference value: 52.5 +/- 1.4); format: functional; details: time 4.5 hrs
Mus musculus [4] = test: Antiulcer activity in indomethacin-induced Balb/c mouse model of gastric ulcer assessed as inhibition of ulceration at 12 mg/kg, po pre-administered with compound for 30 mins followed by indomethacin administration and measured after 4 hrs relative to control; format: functional; details: time 4.5 hrs
Mus musculus [5] = test: In vivo inhibition of MMP-9 expression in indomethacin-induced Balb/c mouse model of gastric ulcer at 50 mg/kg, po pre-administered with compound for 30 mins followed by indomethacin administration and measured after 4 hrs by PI staining based immunofluorescence analysis; format: functional, organism-based; details: time 4.5 hrs
[6] = Toxicity in Balb/c mouse assessed as lethargy at 150 to 300 mg/kg, po administered via gavage for 25 days; format: organism-based; details: in vivo, 600 h, dose 150-300 mg/kg, time 25 day
[7] = Toxicity in Balb/c mouse assessed as fur loss at 150 to 300 mg/kg, po administered via gavage for 25 days; format: organism-based; details: in vivo, 600 h, dose 150-300 mg/kg, time 25 day
[8] = Toxicity in Balb/c mouse assessed as mortality at 150 to 300 mg/kg, po administered via gavage for 25 days; format: organism-based; details: in vivo, 600 h, dose 150-300 mg/kg, time 25 day
[9] = AUC in Sprague-Dawley rat at 250 mg/kg, po administered via gavage by HPLC analysis; format: ADME, organism-based; parameters: dose 250 mg/kg, route po; details: in vivo
Mus musculus [10] = test: Antiulcer activity in indomethacin-induced Balb/c mouse model of gastric ulcer assessed as cell injury in mucosa at 50 mg/kg, po pre-administered with compound for 30 mins followed by indomethacin administration and measured after 4 hrs by H&E staining based analysis (reference value: 70+/- 6.5 %); format: functional; details: time 4.5 hrs
[11] = target: T1, Matrix metalloproteinase-9 (Homo sapiens, UniProt P14780); test: Inhibition of human MMP-9 incubated for 3 hrs by SDS-PAGE based gelatin zymography analysis
T1 sequence (P14780 whole entry): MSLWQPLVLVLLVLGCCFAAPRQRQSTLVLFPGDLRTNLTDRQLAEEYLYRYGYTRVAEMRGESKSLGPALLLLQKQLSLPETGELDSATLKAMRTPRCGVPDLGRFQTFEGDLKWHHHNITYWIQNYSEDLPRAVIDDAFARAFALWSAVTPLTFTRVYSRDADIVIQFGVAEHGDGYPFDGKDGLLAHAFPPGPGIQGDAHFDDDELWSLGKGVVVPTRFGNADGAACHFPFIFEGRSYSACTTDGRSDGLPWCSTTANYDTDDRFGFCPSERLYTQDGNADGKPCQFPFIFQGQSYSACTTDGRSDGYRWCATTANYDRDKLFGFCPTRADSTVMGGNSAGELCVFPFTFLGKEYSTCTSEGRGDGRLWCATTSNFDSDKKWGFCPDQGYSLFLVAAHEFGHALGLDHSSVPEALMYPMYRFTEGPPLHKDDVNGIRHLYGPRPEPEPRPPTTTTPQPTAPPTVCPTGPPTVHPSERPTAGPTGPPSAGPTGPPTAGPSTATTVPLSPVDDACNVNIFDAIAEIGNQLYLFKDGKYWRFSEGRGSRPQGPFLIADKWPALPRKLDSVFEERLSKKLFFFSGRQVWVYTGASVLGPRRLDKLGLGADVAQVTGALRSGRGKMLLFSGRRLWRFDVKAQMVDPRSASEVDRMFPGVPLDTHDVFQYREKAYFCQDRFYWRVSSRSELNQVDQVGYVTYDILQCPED

[12] = Toxicity in Balb/c mouse assessed as abdominal distension at 150 to 300 mg/kg, po administered via gavage for 25 days; format: organism-based; details: in vivo, 600 h, dose 150-300 mg/kg, time 25 day
[13] = target: 72 kDa type IV collagenase (Homo sapiens) (UniProt P08253); test: Inhibition of MMP-2 (unknown origin) upto 500 uM incubated for 3 hrs by SDS-PAGE analysis
Sequence of 72 kDa type IV collagenase (Homo sapiens) (P08253 110-660 limits assumed): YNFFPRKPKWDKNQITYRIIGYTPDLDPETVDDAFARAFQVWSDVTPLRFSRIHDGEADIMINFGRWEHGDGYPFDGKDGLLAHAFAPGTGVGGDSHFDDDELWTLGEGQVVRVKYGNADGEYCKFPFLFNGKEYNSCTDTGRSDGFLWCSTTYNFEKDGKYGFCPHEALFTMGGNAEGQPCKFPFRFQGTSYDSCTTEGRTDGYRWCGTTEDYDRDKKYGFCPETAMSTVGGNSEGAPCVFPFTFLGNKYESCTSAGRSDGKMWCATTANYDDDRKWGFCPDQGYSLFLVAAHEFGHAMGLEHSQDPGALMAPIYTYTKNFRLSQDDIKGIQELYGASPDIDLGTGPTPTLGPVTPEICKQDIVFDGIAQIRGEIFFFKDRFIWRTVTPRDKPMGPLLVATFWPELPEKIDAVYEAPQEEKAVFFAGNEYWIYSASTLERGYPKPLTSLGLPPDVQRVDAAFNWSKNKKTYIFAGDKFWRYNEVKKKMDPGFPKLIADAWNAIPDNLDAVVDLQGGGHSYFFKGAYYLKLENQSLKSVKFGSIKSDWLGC

Mus musculus [14] = test: Antiulcer activity in indomethacin-induced Balb/c mouse model of gastric ulcer assessed as reduction in gastric tissue injury at 50 mg/kg, po pre-administered with compound for 30 mins followed by indomethacin administration and measured after 4 hrs by H&E staining based analysis; format: functional, organism-based; details: time 4.5 hrs
[15] = target: T2, Prostaglandin G/H synthase 2 (Homo sapiens, UniProt P35354); test: Inhibition of COX2 (unknown origin) preincubated with compound for 5 mins followed by substrate addition and measured after 5 mins by fluorescence spectrophotometer analysis
T2 sequence (P35354 whole entry): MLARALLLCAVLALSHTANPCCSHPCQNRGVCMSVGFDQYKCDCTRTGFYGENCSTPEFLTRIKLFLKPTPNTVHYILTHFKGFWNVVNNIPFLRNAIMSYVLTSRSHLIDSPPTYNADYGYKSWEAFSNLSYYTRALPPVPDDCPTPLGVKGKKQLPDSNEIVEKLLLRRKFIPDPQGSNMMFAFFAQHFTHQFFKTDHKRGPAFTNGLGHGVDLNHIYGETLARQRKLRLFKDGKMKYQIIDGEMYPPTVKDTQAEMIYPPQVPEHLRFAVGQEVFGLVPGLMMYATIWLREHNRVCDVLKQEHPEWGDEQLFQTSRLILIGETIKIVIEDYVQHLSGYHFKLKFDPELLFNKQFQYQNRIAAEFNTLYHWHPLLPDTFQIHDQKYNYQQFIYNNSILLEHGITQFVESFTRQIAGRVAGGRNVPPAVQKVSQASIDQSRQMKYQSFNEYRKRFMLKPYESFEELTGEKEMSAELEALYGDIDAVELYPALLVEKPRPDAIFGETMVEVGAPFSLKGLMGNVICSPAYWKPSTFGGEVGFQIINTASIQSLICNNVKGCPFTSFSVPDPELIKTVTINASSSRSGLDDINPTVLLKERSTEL

[16] = Toxicity in Balb/c mouse assessed as effect on body weight at 150 to 300 mg/kg, po administered via gavage for 25 days; format: organism-based; details: in vivo, 600 h, dose 150-300 mg/kg, time 25 day
Mus musculus [17] = test: Antiulcer activity in indomethacin-induced Balb/c mouse model of gastric ulcer assessed as inhibition of gastric mucosal apoptosis at 50 mg/kg, po pre-administered with compound for 30 mins followed by indomethacin administration and measured after 4 hrs by TUNEL assay; format: functional, organism-based; details: time 4.5 hrs
Mus musculus [18] = test: Antiulcer activity in indomethacin-induced Balb/c mouse model of gastric ulcer assessed as intact epithelial layer in gastric tissue at 50 mg/kg, po pre-administered with compound for 30 mins followed by indomethacin administration and measured after 4 hrs by H&E staining based analysis; format: functional, organism-based; details: time 4.5 hrs
Mus musculus [19] = test: (§1) Antiulcer activity in indomethacin-induced Balb/c mouse model of gastric ulcer assessed as reduction in mucosal injury at 50 mg/kg, po pre-administered with compound for 30 mins followed by indomethacin administration and measured after 4 hrs by H&E staining based analysis relative to control; format: functional; parameters: scale not given: the % may be the effect or the level left; details: time 4.5 hrs
Mus musculus [20] = test: as §1, with “prevention of inflammatory cell infiltration” for “reduction in mucosal injury”; format: functional; details: time 4.5 hrs
[21] = target: T1, Matrix metalloproteinase-9; test: Inhibition of human MMP-9 at 500 uM incubated for 3 hrs by SDS-PAGE based gelatin zymography analysis
Mus musculus [22] = test: In vivo inhibition of MMP-9 activity in indomethacin-induced Balb/c mouse model of gastric ulcer at 50 mg/kg, po pre-administered with compound for 30 mins followed by indomethacin administration and measured after 4 hrs by SDS-PAGE based gelatin zymography method; format: functional, organism-based; details: time 4.5 hrs
Mus musculus [23] = test: Antioxidant activity in indomethacin-induced Balb/c mouse model of gastric ulcer assessed as lipid peroxidation by measuring TBARS activity in stomach at 50 mg/kg, po pre-administered with compound for 30 mins followed by indomethacin administration and measured after 4 hrs by TBARS assay (reference value: 1.40 +/- 0.03 nmol/mg); format: functional; details: time 4.5 hrs
[24] = Toxicity in Balb/c mouse assessed as hunching at 150 to 300 mg/kg, po administered via gavage for 25 days; format: organism-based; details: in vivo, 600 h, dose 150-300 mg/kg, time 25 day
[25] = Tmax in Sprague-Dawley rat at 250 mg/kg, po administered via gavage by HPLC analysis; format: ADME, organism-based; details: in vivo
Mus musculus [26] = test: Antiulcer activity in indomethacin-induced Balb/c mouse model of gastric ulcer assessed as inflammatory cell infiltration at 50 mg/kg, po pre-administered with compound for 30 mins followed by indomethacin administration and measured after 4 hrs by H&E staining based analysis (reference value: 147 +/- 5.2%); format: functional; details: time 4.5 hrs

SMILES: Oc1ccc2[nH]cc(-c3cc(-c4ccccc4)oc3-c3ccccc3)c2c1
- inhibition in vivo at 50 mg/kg (Mus musculus [1]): 78%
- UI (Mus musculus [2]): 11.5

SMILES: Oc1ccccc1-c1[nH]c2ccccc2c1-c1cc(-c2ccccc2)oc1-c1ccccc1
- inhibition in vivo at 50 mg/kg (Mus musculus [1]): 72%
- UI (Mus musculus [2]): 14.5

SMILES: c1ccc(-c2cc(-c3c[nH]c4ccccc34)c(-c3ccccc3)o2)cc1
- inhibition in vivo at 50 mg/kg (Mus musculus [1]): 62%
- UI (Mus musculus [2]): 20.2

SMILES: COc1ccc2[nH]cc(-c3cc(-c4ccccc4)oc3-c3ccccc3)c2c1
- inhibition in vivo at 50 mg/kg (Mus musculus [1]): 83%
- UI (Mus musculus [2]): 9

SMILES: COc1ccc2[nH]c([S+]([O-])Cc3ncc(C)c(OC)c3C)nc2c1 (stereo not given) [OMEPRAZOLE]
- UI (Mus musculus [3]): 0.5
- inhibition in vivo at 12 mg/kg (Mus musculus [4]): 100%

SMILES: c1ccc(-c2cc(-c3c(-c4ccccc4)[nH]c4ccccc34)c(-c3ccccc3)o2)cc1
- inhibition in vivo at 50 mg/kg (Mus musculus [1]): 65%
- UI (Mus musculus [2]): 18.25

SMILES: COc1cccc2[nH]cc(-c3cc(-c4ccccc4)oc3-c3ccccc3)c12
- inhibition in vivo at 50 mg/kg (Mus musculus [1]): 95%
- inhibition (Mus musculus [5]): Active
- Activity [6]: Non-Toxic
- Activity [7]: Non-Toxic
- Activity [8]: Non-Toxic
- AUC [9]: 1270 µg·h/mL
- Activity (Mus musculus [10]): 12%
- IC50 [11]: ~50 µM
- Activity [12]: Non-Toxic
- inhibition [13]: inactive
- Activity (Mus musculus [14]): Active
- IC50 [15]: > 100 µM
- Activity [16]: Non-Toxic
- Activity (Mus musculus [17]): Active
- Activity (Mus musculus [18]): Active
- UI (Mus musculus [2]): 2.5
- Activity (Mus musculus [19]): ~90%
- Activity (Mus musculus [20]): 100%
- inhibition [21]: Active
- inhibition (Mus musculus [22]): Active
- Activity (Mus musculus [23]): 0.47 nmol/mg
- Activity [24]: Non-Toxic
- Tmax [25]: 6 h
- Activity (Mus musculus [26]): 92%

SMILES: COc1ccc2[nH]cc(-c3cc(-c4ccccc4)oc3-c3ccccc3)c2c1OC
- inhibition in vivo at 50 mg/kg (Mus musculus [1]): 74%
- UI (Mus musculus [2]): 13.5

SMILES: COc1cccc2c1c(-c1cc(-c3ccccc3)oc1-c1ccccc1)cn2C
- inhibition in vivo at 50 mg/kg (Mus musculus [1]): 56%
- UI (Mus musculus [2]): 23.25
